Measured values taken from US9126986B2, “Hetero-bicyclic derivatives as HCV inhibitors” (Janssen R&D Ireland, priority 2011, dated 2015).
Where two headings read alike, the source gives them in different places.

Assays:
[1] = system: HCV replicon type 1b in Huh-Luc cells; assay: HCV replicon assay, stable transfection (Huh-7 luc/neo, luciferase readout); format: cell-based, HCV type 1b; conditions: stably transfected Huh-Luc cells, genotype 1b, three days incubation, average where tested more than once, read-out: HCV-REP-HUH7LUC_EC50
Excerpt: The compounds of formula (I) were examined for inhibitory activity in the HCV replicon. This cellular assay is based on a bicistronic expression construct, as described by Lohmann et al. (Science (1999) 285: 110-113; Journal of Virology (2003) 77: 3007-3019) with modifications described by Krieger et al. (Journal of Virology (2001) 75: 4614-4624), and Lohmann et al. (Journal of Virology (2003) 77: 3007-3019) for genotype 1b and by Yi et al. (Journal of Virology (2004) 78: 7904-7915) for genotype 1a, in a multi-target screening strategy.
The method was as follows. The assay utilized the stably transfected cell line Huh-7 luc/neo (hereafter referred to as Huh-Luc). This cell line harbors an RNA encoding a bicistronic expression construct comprising the wild type NS3-NS5B regions of HCV type 1b translated from an Internal Ribosome Entry Site (IRES) from encephalomyocarditis virus (EMCV), preceded by a reporter portion (FfL-luciferase), and a selectable marker portion (neoR, neomycine phosphotransferase). The construct is flanked by 5′ and 3′ NTRs (non-translated regions) from HCV type 1b. Continued culture of the replicon cells in the presence of G418 (neoR) is dependent on the replication of the HCV RNA. The stably transfected replicon cells that replicate HCV RNA autonomously and to high levels, encoding inter alia luciferase, were used for screening the antiviral compounds.
The replicon cells were plated in 384 well plates in the presence of the test and control compounds which were added in various concentrations. Following an incubation of three days, HCV replication was measured by assaying luciferase activity (using standard luciferase assay substrates and reagents and a Perkin Elmer ViewLux™ ultraHTS microplate imager). Replicon cells in the control cultures have high luciferase expression in the absence of any inhibitor. The inhibitory activity of the compound was monitored on the Huh-Luc cells, enabling a dose-response curve for each test compound. EC50 values were then calculated, which represent the amount of compound required to decrease the level of detected luciferase activity by 50%, or more specifically, to reduce the ability of the genetically linked HCV replicon RNA to replicate.
Where a compound of formula (I) was tested more than once in the replicon assay, the average of all test results is given in this Table 1.

[2] = system: HCV subgenomic replicon genotype 1b Con1 in Huh-7 lunet cells; assay: HCV replicon assay, transient transfection, genotype 1b Con1; format: cell-based, HCV genotype 1b Con1; conditions: transiently transfected Huh-7 lunet, genotype 1b Con1, two days incubation, luciferase
Excerpt: (§1) In a transient set-up, a Huh-7 lunet hepatoma cell line was transiently transfected with an autonomously replicating RNA encoding a bi-cistronic expression construct. This construct comprises a firefly luciferase reporter gene preceding the NS3-NS5B subgenomic region of HCV (genotype 1a H77 or 1b Con1). Translation of the HCV subgenomic region is mediated by an internal ribosome entry site of encephalomyocarditis virus. The construct is furthermore flanked by 5′ and 3′ untranslated regions of HCV (genotype 1a H77 or 1b Con 1, respectively), which allow for replication of the RNA.
(§2) Cells were plated in 384 well plates in the presence of test and control compounds, which were added in various concentrations. Following an incubation of two days, replication of the HCV subgenomic replicon RNA was measured by assaying luciferase activity (using standard luciferase assay substrates and reagents and a Perkin Elmer ViewLux™ ultraHTS microplate imager). HCV subgenomic replicon containing cells in the control cultures have high luciferase expression in the absence of any inhibitor. The inhibitory activity of the compound was monitored, enabling a dose-response curve for each test compound. EC50 values were then calculated, which represent the amount of compound required to decrease the level of detected luciferase activity by 50%, or more specifically, to reduce the ability of the genetically linked HCV subgenomic RNA to replicate.

[3] = system: HCV subgenomic replicon genotype 1a H77 in Huh-7 lunet cells; assay: HCV replicon assay, transient transfection, genotype 1a H77; format: cell-based, HCV genotype 1a H77; conditions: transiently transfected Huh-7 lunet, genotype 1a H77, two days incubation, luciferase
Excerpt: as §1, §2

[4] = Counterscreen MT4-LTR-Luc; format: cell-based; conditions: human; MT4 T-cell line with long terminal repeat-Luc reporter
Excerpt: (§3) Counterscreen cell lines included a Huh-7 hepatoma cell line containing a human cytomegalovirus major immediate-early promoter-Luc construct (Huh7-CMV-Luc) and an MT4 T-cell line containing a long terminal repeat-Luc reporter (MT4-LTR-Luc).

[5] = Counterscreen Huh7-CMV-Luc; format: cell-based; conditions: Huh-7 hepatoma cell line with human CMV major immediate-early promoter-Luc construct
Excerpt: as §3

MT4-LTR-Luc cells = assay: Counterscreen MT4-LTR-Luc; format: cell-based; conditions: MT4 T-cell line with long terminal repeat-Luc reporter
Excerpt: as §3

Row | SMILES | EC50 [1] [nM] | EC50 [2] [nM] | EC50 [3] [nM] | CC50 [4] [nM] | CC50 [5] [nM] | CC50 (MT4-LTR-Luc cells) [nM] | EC50 ([1]; Hepatitis C virus, Huh-7, 72 h) [nM] | EC50 ([2]; Hepatitis C virus, Huh-7, 48 h) [nM] | EC50 ([3]; Hepatitis C virus, Huh-7, 48 h) [nM]
1 | COC(=O)N[C@H](C(=O)N1CCCC1c1cc(=O)c2ccc(-c3ccc(-c4ccc(-c5cnc([C@@H]6CCCN6C(=O)[C@@H](NC(=O)OC)C(C)C)[nH]5)cc4)cc3)cc2[nH]1)C(C)C (single isomer, unassigned) [Compound 3a] | 0.021 | 0.025 | 0.008 | > 984 | > 984 | – | – | – | –
2 | COC(=O)N[C@H](C(=O)N1CCCC1c1cc(=O)c2ccc(-c3ccc(-c4ccc(-c5cnc([C@@H]6CCCN6C(=O)[C@@H](NC(=O)OC)C(C)C)[nH]5)cc4)cc3)cc2[nH]1)C(C)C (single isomer, unassigned) [Compound 3b] | 1.13 | 1.36 | 0.941 | – | – | > 984 | – | – | –
3 | COC(=O)N[C@H](C(=O)N1CCCC1c1cc(=O)c2ccc(-c3ccc4c(c3)C(F)(F)c3cc(-c5c[nH]c([C@@H]6CCCN6C(=O)[C@@H](NC(=O)OC)C(C)C)n5)ccc3-4)cc2[nH]1)C(C)C (single isomer, unassigned) [Compound 5a] | 0.014 | 0.013 | 0.007 | > 984 | > 984 | – | – | – | –
4 | COC(=O)N[C@H](C(=O)N1CCCC1c1cc(=O)c2ccc(-c3ccc4c(c3)C(F)(F)c3cc(-c5c[nH]c([C@@H]6CCCN6C(=O)[C@@H](NC(=O)OC)C(C)C)n5)ccc3-4)cc2[nH]1)C(C)C (single isomer, unassigned) [Compound 5b] | 0.228 | 0.63 | 0.21 | – | – | > 984 | – | – | –
5 | COC(=O)N[C@H](C(=O)N1CCCC1c1[nH]c2cc(-c3ccc(-c4ccc(-c5cnc([C@@H]6CCCN6C(=O)[C@@H](NC(=O)OC)C(C)C)[nH]5)cc4)cc3)ccc2c(=O)c1F)C(C)C (single isomer, unassigned) [Compound 18a] | 0.03 | 0.037 | 0.011 | > 984 | > 984 | – | – | – | –
6 | COC(=O)N[C@H](C(=O)N1CCCC1c1[nH]c2cc(-c3ccc(-c4ccc(-c5cnc([C@@H]6CCCN6C(=O)[C@@H](NC(=O)OC)C(C)C)[nH]5)cc4)cc3)ccc2c(=O)c1F)C(C)C (single isomer, unassigned) [Compound 18b] | 4.4 | 6.7 | 65.6 | – | – | > 984 | – | – | –
7 | COC(=O)N[C@H](C(=O)N1CCC[C@H]1c1ncc(-c2ccc3c(c2)C(F)(F)c2cc(-c4ccc5c(=O)cc([C@@H]6C[C@@H]7CCCC[C@@H]7N6C(=O)[C@@H](NC(=O)OC)C(C)C)[nH]c5c4)ccc2-3)[nH]1)C(C)C [Compound 6] | – | – | – | > 984 | > 984 | – | 0.012 | 0.013 | 0.005
8 | COC(=O)N[C@H](C(=O)N1CCC[C@H]1c1cc(=O)c2cc(F)c(-c3ccc(-c4ccc(-c5cnc([C@@H]6CCCN6C(=O)[C@@H](NC(=O)OC)C(C)C)[nH]5)cc4)cc3)cc2[nH]1)C(C)C [Compound 7] | – | – | – | > 984 | > 984 | – | 0.008 | 0.021 | 0.042
9 | COC(=O)N[C@H](C(=O)N1CCC[C@H]1c1ncc(-c2ccc3c(c2)C(F)(F)c2cc(-c4ccc5c(=O)cc([C@@H]6[C@H]7CC[C@H](C7)N6C(=O)[C@@H](NC(=O)OC)C(C)C)[nH]c5c4)ccc2-3)[nH]1)C(C)C [Compound 8] | – | – | – | 770 | > 984 | – | 0.004 | 0.005 | 0.003
10 | COC(=O)N[C@H](C(=O)N1CCC[C@H]1c1nc(-c2ccc(-c3ccc(-c4ccc5c(=O)nc([C@@H]6CCCN6C(=O)[C@@H](NC(=O)OC)C(C)C)[nH]c5c4)cc3)cc2)c[nH]1)C(C)C [Compound 11] | – | – | – | > 984 | > 984 | – | 0.149 | 0.025 | 1.47
11 | COC(=O)N[C@H](C(=O)N1CCC[C@H]1c1ncc(-c2ccc3c(c2)C(F)(F)c2cc(-c4ccc5c(=O)[nH]c([C@@H]6CCCN6C(=O)[C@@H](NC(=O)OC)C(C)C)nc5c4)ccc2-3)[nH]1)C(C)C [Compound 12] | – | – | – | – | > 984 | – | 0.007 | 0.005 | 0.047
12 | COC(=O)N[C@H](C(=O)N1CCC[C@H]1C1=NS(=O)(=O)c2ccc(-c3ccc4c(c3)C(F)(F)c3cc(-c5cnc([C@@H]6CCCN6C(=O)[C@@H](NC(=O)OC)C(C)C)[nH]5)ccc3-4)cc2N1)C(C)C [Compound 14] | – | – | – | > 984 | > 984 | – | 0.008 | 0.017 | 0.005
13 | COC(=O)N[C@H](C(=O)N1CCC[C@H]1C1=NC2(COC2)c2ccc(-c3ccc4c(c3)C(F)(F)c3cc(-c5cnc([C@@H]6CCCN6C(=O)[C@@H](NC(=O)OC)C(C)C)[nH]5)ccc3-4)cc2N1)C(C)C [Compound 16] | – | – | – | > 984 | > 984 | – | 0.011 | 0.033 | 0.04
14 | COC(=O)N[C@H](C(=O)N1CCC[C@H]1C1=NC2(COC2)c2ccc(-c3ccc(-c4ccc(-c5cnc([C@@H]6CCCN6C(=O)[C@@H](NC(=O)OC)C(C)C)[nH]5)cc4)cc3)cc2N1)C(C)C [Compound 20] | – | – | – | > 984 | > 984 | – | 0.023 | < 0.019 | 0.46
15 | COC(=O)N[C@H](C(=O)N1CCC[C@H]1C1=NS(=O)(=O)c2ccc(-c3ccc(-c4ccc(-c5c[nH]c([C@@H]6CCCN6C(=O)[C@@H](NC(=O)OC)C(C)C)n5)cc4)cc3)cc2N1)C(C)C [Compound 22] | – | – | – | > 984 | > 984 | – | 0.012 | 0.012 | 0.054
16 | COC(=O)N[C@H](C(=O)N1CC2(C[C@H]1c1ncc(-c3ccc4c(c3)C(F)(F)c3cc(-c5ccc6c(=O)[nH]c([C@@H]7C[C@@H]8CCCC[C@@H]8N7C(=O)[C@@H](NC(=O)OC)C(C)C)nc6c5)ccc3-4)[nH]1)OCCO2)C(C)C [Compound 23] | – | – | – | > 984 | > 984 | – | 0.006 | 0.005 | 0.005
